{"source": "paper PMC6194023", "about": "(Cell Death & Disease, 2018)", "key": {"MCF-7 tumor xenograft": {"system": "MCF-7 tumor xenograft", "settings": "MCF-7 xenograft, 90 mg/kg p.o. every day"}, "EGFR": {"target": "EGFR (Homo sapiens, UniProt P00533)", "assay": "kinase activity in vitro", "type": "biochemical"}, "MDA-MB-453": {"system": "MDA-MB-453", "assay": "cells", "settings": "Homo sapiens, MDA-MB-453, read-out: IC50 proliferation", "experimental": "(§1) The IC50 values were calculated using the GraphPad Prism software, each assay was replicated 3 times."}, "BT474": {"system": "BT474", "assay": "cells", "settings": "Homo sapiens, BT-474, read-out: IC50 proliferation", "experimental": "as §1"}, "TNBC cell lines": {"system": "TNBC cell lines", "assay": "cells", "settings": "Homo sapiens, read-out: IC50 proliferation, range over TNBC cell lines", "experimental": "as §1"}, "MDA-MB-435": {"system": "MDA-MB-435", "assay": "cells", "settings": "Homo sapiens, MDA-MB-435, read-out: IC50 proliferation", "experimental": "as §1"}, "MCF-7": {"system": "MCF-7", "assay": "cells", "settings": "Homo sapiens, MCF7, read-out: IC50 proliferation", "experimental": "as §1"}, "ZR-75-1": {"system": "ZR-75-1", "assay": "cells", "settings": "Homo sapiens, ZR-75-1, read-out: IC50 proliferation", "experimental": "as §1"}, "MDA-MB-231 [1]": {"system": "MDA-MB-231", "assay": "cells", "settings": "Homo sapiens, MDA-MB-231, read-out: IC50 proliferation", "experimental": "as §1"}, "ZR-75-30": {"system": "ZR-75-30", "assay": "cells", "settings": "Homo sapiens, ZR-75-30, read-out: IC50 proliferation", "experimental": "as §1"}, "BT549": {"system": "BT549", "assay": "cells", "settings": "Homo sapiens, BT-549, read-out: IC50 proliferation", "experimental": "as §1"}, "MCF-10A": {"system": "MCF-10A", "assay": "cells", "settings": "Homo sapiens, read-out: IC50 proliferation", "experimental": "as §1"}, "HCC1954": {"system": "HCC1954", "assay": "cells", "settings": "Homo sapiens, HCC1954, read-out: IC50 proliferation", "experimental": "as §1"}, "MDA-MB-436": {"system": "MDA-MB-436", "assay": "cells", "settings": "Homo sapiens, MDA-MB-436, read-out: IC50 proliferation", "experimental": "as §1"}, "SKBR-3": {"system": "SKBR-3", "assay": "cells", "settings": "Homo sapiens, SK-BR-3, read-out: IC50 proliferation", "experimental": "as §1"}, "MDA-MB-468 [2]": {"system": "MDA-MB-468", "assay": "cells", "settings": "Homo sapiens, MDA-MB-468, read-out: IC50 proliferation", "experimental": "as §1"}, "FGFR1": {"target": "FGFR1 (Homo sapiens, UniProt P11362)", "assay": "kinase activity in vitro", "type": "biochemical"}, "Aurora A": {"target": "Aurora A (Homo sapiens, UniProt O14965)", "sequence (O14965 whole entry)": "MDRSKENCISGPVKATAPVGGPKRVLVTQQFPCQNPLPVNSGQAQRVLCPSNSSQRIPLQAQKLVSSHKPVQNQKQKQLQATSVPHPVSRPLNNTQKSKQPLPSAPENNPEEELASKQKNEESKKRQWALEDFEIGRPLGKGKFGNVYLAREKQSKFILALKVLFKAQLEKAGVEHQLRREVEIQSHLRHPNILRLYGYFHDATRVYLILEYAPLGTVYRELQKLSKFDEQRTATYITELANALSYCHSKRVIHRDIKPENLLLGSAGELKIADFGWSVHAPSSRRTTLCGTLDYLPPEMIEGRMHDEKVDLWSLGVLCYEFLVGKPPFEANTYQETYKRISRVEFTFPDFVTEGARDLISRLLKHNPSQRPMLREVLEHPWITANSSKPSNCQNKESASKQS", "assay": "kinase activity in vitro", "type": "biochemical"}, "ERBB2/HER2": {"target": "ERBB2/HER2 (Homo sapiens, UniProt P04626)", "assay": "kinase activity in vitro", "type": "biochemical"}, "breast xenograft models": {"system": "breast xenograft models", "assay": "breast tumor xenograft models (overall, tolerability)", "type": "in vivo, BALB/c nude mice"}, "MDA-MB-231 [3]": {"system": "MDA-MB-231", "assay": "mitotic catastrophe, nuclear staining", "type": "cell-based, human", "settings": "MDA-MB-231, 0.5 μM, 30 h", "experimental": "(§2) Then treated tumor cells were washed with PBS and stain with Hoechst 33342 in the dark for 15 min. Image were taken by fluorescence microscopy for morphological changes after YLT-11 treatment."}, "MDA-MB-468 [4]": {"system": "MDA-MB-468", "assay": "mitotic catastrophe, nuclear staining", "type": "cell-based, human", "settings": "MDA-MB-468, 0.5 μM, 30 h", "experimental": "as §2"}, "PLK3 [5]": {"target": "T1, PLK3 (Homo sapiens, UniProt Q9H4B4)", "T1 sequence (Q9H4B4 whole entry)": "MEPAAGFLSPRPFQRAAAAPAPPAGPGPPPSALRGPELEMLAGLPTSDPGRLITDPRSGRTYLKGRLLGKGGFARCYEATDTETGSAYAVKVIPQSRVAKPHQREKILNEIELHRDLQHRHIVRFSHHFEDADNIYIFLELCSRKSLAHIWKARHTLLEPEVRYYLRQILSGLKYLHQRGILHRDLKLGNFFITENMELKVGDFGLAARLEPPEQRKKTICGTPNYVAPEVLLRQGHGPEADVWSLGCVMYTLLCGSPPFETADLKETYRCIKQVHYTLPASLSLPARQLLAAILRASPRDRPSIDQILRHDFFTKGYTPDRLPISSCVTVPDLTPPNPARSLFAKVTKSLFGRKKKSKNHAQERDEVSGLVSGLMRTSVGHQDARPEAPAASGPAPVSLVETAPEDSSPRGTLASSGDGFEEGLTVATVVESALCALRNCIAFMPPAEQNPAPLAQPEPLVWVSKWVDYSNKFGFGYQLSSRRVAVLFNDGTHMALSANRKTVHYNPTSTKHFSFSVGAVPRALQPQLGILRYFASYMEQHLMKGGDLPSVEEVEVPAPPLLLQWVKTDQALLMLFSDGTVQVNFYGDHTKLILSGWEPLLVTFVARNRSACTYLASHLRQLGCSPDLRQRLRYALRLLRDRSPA", "assay": "kinase activity in vitro", "type": "biochemical"}, "PLK2 [6]": {"target": "T2, PLK2 (Homo sapiens, UniProt Q9NYY3)", "T2 construct": "made in house; host or cells: T7 phage in E. coli (BL21-derived) or HEK-293 cells", "T2 sequence (Q9NYY3 whole entry)": "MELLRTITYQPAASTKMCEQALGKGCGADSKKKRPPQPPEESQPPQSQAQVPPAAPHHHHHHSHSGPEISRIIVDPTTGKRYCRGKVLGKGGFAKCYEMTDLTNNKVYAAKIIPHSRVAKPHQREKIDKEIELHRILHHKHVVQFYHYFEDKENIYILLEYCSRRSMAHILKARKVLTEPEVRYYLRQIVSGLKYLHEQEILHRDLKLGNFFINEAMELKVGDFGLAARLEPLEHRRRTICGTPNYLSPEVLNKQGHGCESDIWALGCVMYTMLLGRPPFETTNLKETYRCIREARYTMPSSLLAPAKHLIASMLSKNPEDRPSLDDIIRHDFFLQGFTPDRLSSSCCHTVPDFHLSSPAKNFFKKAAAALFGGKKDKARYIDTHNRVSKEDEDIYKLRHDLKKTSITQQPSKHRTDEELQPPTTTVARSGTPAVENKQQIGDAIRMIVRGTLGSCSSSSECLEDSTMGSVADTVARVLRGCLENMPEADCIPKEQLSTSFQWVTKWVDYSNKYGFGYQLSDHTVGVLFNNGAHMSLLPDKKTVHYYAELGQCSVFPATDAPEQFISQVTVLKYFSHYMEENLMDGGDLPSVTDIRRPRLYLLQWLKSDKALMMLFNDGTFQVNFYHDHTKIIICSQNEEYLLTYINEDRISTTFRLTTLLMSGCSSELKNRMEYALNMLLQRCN", "assay": "kinase activity in vitro", "type": "biochemical"}, "PLK3 [7]": {"target": "T1, PLK3", "assay": "competition binding constant assay", "quoted_text": "(§3) Kinases were produced in HEK-293 cells and subsequently tagged with DNA for quantitative polymerase chain reaction (qPCR) detection. […] The beads were blocked with excess biotin and washed with blocking buffer (SeaBlock, 1% bovine serum albumin, 0.05% Tween-20, 1 mM dithiothreitol (DTT)). […] The kinase concentration in the eluates was measured by qPCR."}, "TTBK1": {"target": "TTBK1 (Homo sapiens, UniProt Q5TCY1)", "assay": "kinase activity in vitro", "type": "biochemical"}, "TTBK2": {"target": "TTBK2 (Homo sapiens, UniProt Q6IQ55)", "sequence (Q6IQ55 whole entry)": "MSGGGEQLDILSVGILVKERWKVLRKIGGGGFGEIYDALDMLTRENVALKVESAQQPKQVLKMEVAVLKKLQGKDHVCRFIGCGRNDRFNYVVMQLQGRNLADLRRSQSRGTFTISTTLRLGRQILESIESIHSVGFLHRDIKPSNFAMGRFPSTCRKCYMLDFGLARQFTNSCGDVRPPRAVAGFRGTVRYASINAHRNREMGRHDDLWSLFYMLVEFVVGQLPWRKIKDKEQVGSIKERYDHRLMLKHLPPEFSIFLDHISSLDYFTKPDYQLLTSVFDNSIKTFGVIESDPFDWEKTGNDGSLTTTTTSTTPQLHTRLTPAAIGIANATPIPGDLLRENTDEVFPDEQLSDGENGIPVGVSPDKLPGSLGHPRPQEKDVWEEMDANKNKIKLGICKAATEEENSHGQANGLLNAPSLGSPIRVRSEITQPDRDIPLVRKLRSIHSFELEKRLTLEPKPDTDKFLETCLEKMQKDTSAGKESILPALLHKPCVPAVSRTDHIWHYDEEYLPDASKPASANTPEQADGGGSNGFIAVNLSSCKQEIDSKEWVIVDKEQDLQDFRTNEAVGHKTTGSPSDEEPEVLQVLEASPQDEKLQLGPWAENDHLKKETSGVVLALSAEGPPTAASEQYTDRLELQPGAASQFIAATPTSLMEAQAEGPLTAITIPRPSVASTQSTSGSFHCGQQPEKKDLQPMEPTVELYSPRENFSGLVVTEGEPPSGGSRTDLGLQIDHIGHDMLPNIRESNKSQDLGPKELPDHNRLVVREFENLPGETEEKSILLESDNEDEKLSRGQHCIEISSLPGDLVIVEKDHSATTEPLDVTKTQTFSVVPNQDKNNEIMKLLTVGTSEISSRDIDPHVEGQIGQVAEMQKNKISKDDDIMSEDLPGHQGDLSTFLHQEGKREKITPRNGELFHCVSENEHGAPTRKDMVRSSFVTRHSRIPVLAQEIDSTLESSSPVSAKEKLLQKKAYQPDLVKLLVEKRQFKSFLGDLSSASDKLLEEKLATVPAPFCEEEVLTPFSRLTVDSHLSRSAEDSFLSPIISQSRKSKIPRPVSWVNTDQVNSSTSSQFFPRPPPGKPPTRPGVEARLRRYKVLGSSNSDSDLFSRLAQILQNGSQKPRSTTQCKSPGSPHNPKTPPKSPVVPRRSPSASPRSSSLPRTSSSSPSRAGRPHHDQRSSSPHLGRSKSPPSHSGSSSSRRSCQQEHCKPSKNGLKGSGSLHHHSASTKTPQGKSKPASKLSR", "assay": "kinase activity in vitro", "type": "biochemical"}, "MDA-MB-231 xenografts": {"system": "MDA-MB-231 xenografts", "assay": "immunohistochemical analysis of tumor tissues", "settings": "MDA-MB-231 tumor tissue", "excerpt": "Tumor tissues obtained from the animal models were immersed in 4% paraformaldehyde. After washing with running tap water overnight, the tissues dehydrated trough a serial alcohol gradient and embedded in paraffin, Paraffin-embedded tumor sections were stained with primary antibodies (Ki67, cleaved caspase-3, p21, CDC25C, CyclinB1) using the DAB Detection Kit. The images were captured with a Carl Zeiss digital camera attached to a light microscope."}, "PLK1 [8]": {"target": "T3, PLK1 (Homo sapiens, UniProt P53350)", "T3 sequence (P53350 whole entry)": "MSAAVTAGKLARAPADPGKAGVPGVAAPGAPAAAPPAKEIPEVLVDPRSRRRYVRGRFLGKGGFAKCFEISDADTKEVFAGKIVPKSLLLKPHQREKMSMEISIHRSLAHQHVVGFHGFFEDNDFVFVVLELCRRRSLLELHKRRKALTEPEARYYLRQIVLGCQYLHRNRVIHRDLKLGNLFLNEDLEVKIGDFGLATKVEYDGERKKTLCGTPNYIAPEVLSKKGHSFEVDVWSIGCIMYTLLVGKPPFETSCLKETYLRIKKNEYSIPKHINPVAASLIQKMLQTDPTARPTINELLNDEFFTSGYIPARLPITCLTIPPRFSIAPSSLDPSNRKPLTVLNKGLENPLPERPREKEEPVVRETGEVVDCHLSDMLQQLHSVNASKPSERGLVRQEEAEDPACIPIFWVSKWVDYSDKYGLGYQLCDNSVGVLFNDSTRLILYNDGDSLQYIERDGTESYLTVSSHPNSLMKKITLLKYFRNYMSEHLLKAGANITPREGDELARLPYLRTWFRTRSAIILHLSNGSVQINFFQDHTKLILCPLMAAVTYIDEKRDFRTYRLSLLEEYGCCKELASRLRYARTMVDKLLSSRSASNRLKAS", "assay": "kinase activity in vitro", "type": "biochemical"}, "[9]": {"system": "MDA-MB-468 tumor xenograft", "settings": "MDA-MB-468 xenograft, 90 mg/kg p.o. every day"}, "PLK1 [10]": {"target": "T3, PLK1", "assay": "competition binding constant assay", "quoted_text": "as §3"}, "sub-acute toxicity test": {"assay": "sub-acute toxicity test", "type": "in vivo, BALB/c mice", "settings": "single oral dose 1 g/kg, observed 15 days", "description": "Then blood of the mice was obtained for serum biochemistry and hematological analysis using a Hitachi 7200 Blood Chemistry Analyzer and a Nihon Kohdern MEK-5216K Automatic Hematology Analyzer. The heart, liver, spleen, lung and kidney were fixed and routinely processed and embedded in paraﬃn for hematoxylin and eosin (H&E) staining analysis."}, "PLK2 [11]": {"target": "T2, PLK2", "assay": "competition binding constant assay", "quoted_text": "as §3"}, "NEK2": {"target": "NEK2 (Homo sapiens, UniProt P51955)", "sequence (P51955 whole entry)": "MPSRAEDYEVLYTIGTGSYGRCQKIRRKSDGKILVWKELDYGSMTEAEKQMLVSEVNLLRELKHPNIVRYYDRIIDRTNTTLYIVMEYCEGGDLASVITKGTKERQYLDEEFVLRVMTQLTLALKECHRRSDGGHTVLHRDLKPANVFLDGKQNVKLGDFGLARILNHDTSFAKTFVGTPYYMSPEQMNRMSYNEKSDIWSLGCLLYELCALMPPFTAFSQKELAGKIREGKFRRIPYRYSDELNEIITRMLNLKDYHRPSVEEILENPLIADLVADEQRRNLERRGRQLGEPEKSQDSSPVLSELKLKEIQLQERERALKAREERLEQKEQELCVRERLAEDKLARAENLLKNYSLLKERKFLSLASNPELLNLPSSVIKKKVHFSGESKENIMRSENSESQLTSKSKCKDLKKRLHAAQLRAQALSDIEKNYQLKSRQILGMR", "assay": "kinase activity in vitro", "type": "biochemical"}, "JNK2": {"target": "JNK2 (Homo sapiens, UniProt P45984)", "sequence (P45984 whole entry)": "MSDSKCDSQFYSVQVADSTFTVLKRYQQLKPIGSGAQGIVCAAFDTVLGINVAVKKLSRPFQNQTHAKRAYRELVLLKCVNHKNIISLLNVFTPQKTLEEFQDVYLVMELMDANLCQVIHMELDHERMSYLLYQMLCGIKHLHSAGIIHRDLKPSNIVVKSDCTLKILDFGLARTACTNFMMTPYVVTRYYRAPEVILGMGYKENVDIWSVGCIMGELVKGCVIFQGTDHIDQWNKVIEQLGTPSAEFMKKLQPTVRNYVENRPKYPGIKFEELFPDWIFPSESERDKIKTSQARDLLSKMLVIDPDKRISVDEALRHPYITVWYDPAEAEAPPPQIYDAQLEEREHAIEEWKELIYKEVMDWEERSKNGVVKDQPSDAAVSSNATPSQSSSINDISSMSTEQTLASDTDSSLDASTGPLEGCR", "assay": "kinase activity in vitro", "type": "biochemical"}, "TOPK": {"target": "TOPK (Homo sapiens, UniProt Q96KB5)", "sequence (Q96KB5 whole entry)": "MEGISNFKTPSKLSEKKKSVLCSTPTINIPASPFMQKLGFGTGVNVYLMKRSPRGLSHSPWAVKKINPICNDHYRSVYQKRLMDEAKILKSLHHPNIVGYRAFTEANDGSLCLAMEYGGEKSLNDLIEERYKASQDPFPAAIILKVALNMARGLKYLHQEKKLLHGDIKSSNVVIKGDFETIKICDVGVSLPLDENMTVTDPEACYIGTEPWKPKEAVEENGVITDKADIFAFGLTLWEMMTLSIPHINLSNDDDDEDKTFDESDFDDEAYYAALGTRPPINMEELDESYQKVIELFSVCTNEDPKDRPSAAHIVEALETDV", "assay": "kinase activity in vitro", "type": "biochemical"}, "[12]": {"system": "MDA-MB-468 and MDA-MB-231", "assay": "centriole number by immunofluorescence (centrin 2, γ-tublin)", "type": "cell-based, human", "settings": "24 h", "experimental": "Tumor cells were seeded in Millicell EZ SLIDE 8 well glass slide (Millipore, Ireland) at the density of 2 × 10^4 per well. […] Then cells were incubated with primary antibody overnight at 4 ℃ after blocked with 1% BSA. Goat anti-rabbit and goat anti-mouse secondary antibodies conjugated to FITC and […] were used to detect primary antibodies. Cell nucleuses were stained with DAPI. Images were taken using a Leica cofocusing microscope."}, "[13]": {"system": "MDA-MB-231 tumor xenograft", "settings": "MDA-MB-231 xenograft, 90 mg/kg p.o. every day"}}}
{"molecule": "CC(=O)Nc1nccc(-c2ccc3c(/C=C/c4ccc(CN(C)C)cc4)n[nH]c3c2)n1", "note": "[YLT-11, (E)-N-(4-(3-(4-((dimethylamino)methyl)styryl)-1H-indazol-6-yl)pyrimidin-2-yl)acetamide]", "values": [{"measurement": "tumor inhibition rate", "setting": "MCF-7 tumor xenograft", "result": 68, "unit": "%"}, {"measurement": "IC50", "setting": "EGFR", "result": 0.664, "unit": "µM"}, {"measurement": "IC50", "setting": "MDA-MB-453", "result": 0.21, "unit": "µM"}, {"measurement": "IC50", "setting": "BT474", "result": 0.163, "unit": "µM"}, {"measurement": "IC50", "setting": "TNBC cell lines", "result": "0.068 to 0.12", "unit": "µM"}, {"measurement": "IC50", "setting": "MDA-MB-435", "result": 0.154, "unit": "µM"}, {"measurement": "IC50", "setting": "MCF-7", "result": 0.074, "unit": "µM"}, {"measurement": "IC50", "setting": "ZR-75-1", "result": 0.223, "unit": "µM"}, {"measurement": "IC50", "setting": "MDA-MB-231 [1]", "result": 0.12, "unit": "µM"}, {"measurement": "IC50", "setting": "ZR-75-30", "result": 0.184, "unit": "µM"}, {"measurement": "IC50", "setting": "BT549", "result": 0.073, "unit": "µM"}, {"measurement": "IC50", "setting": "MCF-10A", "result": "> 10", "unit": "µM"}, {"measurement": "IC50", "setting": "HCC1954", "result": 0.17, "unit": "µM"}, {"measurement": "IC50", "setting": "MDA-MB-436", "result": 0.08, "unit": "µM"}, {"measurement": "IC50", "setting": "SKBR-3", "result": 0.231, "unit": "µM"}, {"measurement": "IC50", "setting": "MDA-MB-468 [2]", "result": 0.068, "unit": "µM"}, {"measurement": "IC50", "setting": "FGFR1", "result": 0.751, "unit": "µM"}, {"measurement": "IC50", "setting": "Aurora A", "result": 0.468, "unit": "µM"}, {"measurement": "IC50", "setting": "ERBB2/HER2", "result": 0.539, "unit": "µM"}, {"measurement": "inhibitory rate on tumor growth", "setting": "breast xenograft models; breast xenograft models, 90 mg/kg (p.o)", "result": "more than 60%"}, {"measurement": "body weight of experimental animals", "setting": "breast xenograft models; xenograft mice, 30 and 90 mg/kg p.o. every day", "result": "no significant loss in body weight"}, {"measurement": "Percentage of cells with mitotic catastrophe", "setting": "MDA-MB-231 [3]", "result": "about 58%"}, {"measurement": "Percentage of cells with mitotic catastrophe", "setting": "MDA-MB-468 [4]", "result": "approximately 67%"}, {"measurement": "IC50", "setting": "PLK3 [5]", "result": 4.12, "unit": "µM"}, {"measurement": "IC50", "setting": "PLK2 [6]", "result": 5.73, "unit": "µM"}, {"measurement": "Kd", "setting": "PLK3 [7]", "result": "> 10", "unit": "µM"}, {"measurement": "IC50", "setting": "TTBK1", "result": 56.7, "unit": "µM"}, {"measurement": "IC50", "setting": "TTBK2", "result": 8.49, "unit": "µM"}, {"measurement": "cleaved caspase-3-positive cells", "setting": "MDA-MB-231 xenografts; vehicle 12.3 ± 5.1", "result": "66 ± 7.3", "unit": "%"}, {"measurement": "Ki67-positive cells", "setting": "MDA-MB-231 xenografts; vehicle 78 ± 8.1%", "result": "29 ± 6.3", "unit": "%"}, {"measurement": "IC50", "setting": "PLK1 [8]", "result": 4.78, "unit": "µM"}, {"measurement": "tumor inhibition rate", "setting": "[9]", "result": 82.5, "unit": "%"}, {"measurement": "Kd", "setting": "PLK1 [10]", "result": "> 10", "unit": "µM"}, {"measurement": "body weight and hematoxylin and eosin staining vs vehicle", "setting": "sub-acute toxicity test", "result": "no obvious difference"}, {"measurement": "serological and hematological analyses vs vehicle", "setting": "sub-acute toxicity test", "result": "no significant difference"}, {"measurement": "Kd", "setting": "PLK2 [11]", "result": 0.653, "unit": "µM"}, {"measurement": "IC50", "setting": "NEK2", "result": 0.332, "unit": "µM"}, {"measurement": "IC50", "setting": "JNK2", "result": 2.7, "unit": "µM"}, {"measurement": "IC50", "setting": "TOPK", "result": 1.03, "unit": "µM"}, {"measurement": "effect on centriole duplication", "setting": "[12]; 0.5 μM", "result": "centriole duplications were conspicuously suppressed"}, {"measurement": "effect on centriole numbers", "setting": "[12]; low concentrations (≤0.25 μM)", "result": "increased the centriole numbers"}, {"measurement": "tumor inhibition rate", "setting": "[13]", "result": 76.7, "unit": "%"}]}
